Legend:
[1] = gastrointestinal pH range of 1.0 to 7.5; cited from earlier work
[2] = Dissolution testing, USP apparatus II, 900 mL medium, 37° C., 75 rpm; assay type: physicochemical; settings: 100 mg CI-991
Description: (0.1 M) Phosphate solution was prepared by dissolving a calculated amount of Na2HPO4 in USP water. The pH-value of the (0.1 M) phosphate solution was then adjusted to 8.0±0.02 by 85% phosphoric acid to give a pH 8 (0.1 M) phosphate buffer. An appropriate amount of SLS was added and dissolved in the pH 8 (0.1 M) phosphate buffer to give the pH 8 (0.1 M) phosphate buffer containing 0.5% (g/mL) SLS.
(0.05 M) Phosphate solution was prepared by mixing 1:1 ratio of the aqueous solutions of (0.025 M) Na2HPO4 and (0.025 M) K2HPO4. The pH value of the (0.05 M) phosphate solution was then adjusted to 9.0±0.02 by 85% phosphoric acid to give the pH 9 (0.05 M) phosphate buffer.
The dissolution studies were conducted in 900 mL of dissolution medium maintained at 37° C., using USP apparatus II (Distek 2100A dissolution system, North Brunswick, N.J.) at 75 rpm of paddle speed. After dispersing a sample containing 100 mg of CI-991 into the dissolution medium, about 10 mL of solutions were periodically sampled and filtered by Gelman Nylon Acrodisc 0.45 μm filters to give clear filtrates (discard the first 2 mL filtrate). The extent of the drug dissolved in the dissolution medium was determined by UV spectrometry at λ=284 nm. Interference by the excipients was not observed during analysis. Experiments were run in duplicate, and the results were averaged.

[3] = pH 8 (0.1 M) phosphate buffer containing 0.5% SLS

Percent of CI-991 Dissolved in Solution at 5 min [2, 3]: 3.9 ± 0.1%
Percent of CI-991 Dissolved in Solution at 10 min [2, 3]: 6.3 ± 0.1%
Percent of CI-991 Dissolved in Solution at 15 min [2, 3]: 8.2 ± 0.1%
Percent of CI-991 Dissolved in Solution at 5 min ([2]; pH 9 (0.05 M) phosphate buffer): 0.5 ± 0.1%
Percent of CI-991 Dissolved in Solution at 10 min ([2]; pH 9 (0.05 M) phosphate buffer): 0.4 ± 0.1%
Percent of CI-991 Dissolved in Solution at 15 min ([2]; pH 9 (0.05 M) phosphate buffer): 1.2 ± 0.2%
SMILES: Cc1c(C)c2c(c(C)c1O)CCC(C)(COc1ccc(CC3SC(=O)NC3=O)cc1)O2 (stereo not shown) [CI-991 Pure Drug, Troglitazone]
water solubility (in words) [1]: practically water-insoluble
